According to patent US9018258B2, “Substituted 1-benzylcycloalkylcarboxylic acids and the use thereof” (Bayer Intellectual Property GmbH, priority 2010, dated 2015):

Columns and labels:
[1] = target: T1, soluble guanylate cyclase (sGC) (Rattus norvegicus, UniProt P20595); assay: Stimulation of sGC enzyme activity (PPi detection, luciferase); format: biochemical; details: sGC enzyme in vitro; for EC50: read-out: EC50 (concentration at 50% of maximum efficacy), activating action at the sGC enzyme
T1 construct: made in house; host or cells: Sf9 insect cells (baculovirus)
Description: Soluble guanylate cyclase (sGC) converts on stimulation GTP into cGMP and pyrophosphate (PPi). PPi is detected with the aid of the assay described below. The signal produced in the assay increases as the reaction progresses and serves as a measure of the sGC enzyme activity under the given stimulation.
To carry out the assay, 29 μl of enzyme solution [0-10 nM soluble guanylate cyclase (prepared according to Honicka et al., J. Mol. Med. 77, 14-23 (1999)) in 50 mM TEA, 2 mM MgCl2, 0.1% BSA (fraction V), 0.005% Brij®, pH 7.5] are initially introduced into a microplate, and 1 μl of the substance to be tested (as a serially diluted solution in DMSO) is added. The mixture is incubated at room temperature for 10 min. Then 20 μl of detection mix [1.2 nM Firefly Luciferase (Photinus pyralis luciferase, Promega), 29 μM dehydroluciferin (prepared according to Bitler & McElroy, Arch. Biochem. Biophys. 72, 358 (1957)), 122 μM luciferin (Promega), 153 μM ATP (Sigma) and 0.4 mM DTT (Sigma) in 50 mM TEA, 2 mM MgCl2, 0.1% BSA (fraction V), 0.005% Brij®, pH 7.5] are added. The enzyme reaction is started by adding 20 μl of substrate solution [1.25 mM guanosine 5′-triphosphate (Sigma) in 50 mM TEA, 2 mM MgCl2, 0.1% BSA (fraction V), 0.005% Brij®, pH 7.5] and measured continuously in a luminometer. The extent of the stimulation by the substance to be tested can be determined relative to the signal of the unstimulated reaction.
The activation of haem-free guanylate cyclase is examined by addition of 25 μM of 1H-1,2,4-oxadiazolo[4,3-a]quinoxalin-1-one (ODQ) to the enzyme solution and subsequent incubation for 30 minutes and compared to the stimulation of the native enzyme.

[2] = target: T2, sGC (Rattus norvegicus, UniProt P20595); assay: Action at a recombinant guanylate cyclase reporter cell line (CHO reporter cell); format: cell-based; details: CHO reporter cell in vitro
T2 construct: expressed in transfected cells; host or cells: CHO reporter cell
Description: The cellular action of the compounds according to the invention is determined at a recombinant guanylate cyclase reporter cell line, as described in F. Wunder et al., Anal. Biochem. 339, 104-112 (2005).

[3] = test system: saphenous artery; assay: Vasorelaxant effect in vitro (phenylephrine-contracted saphenous artery rings); parameters: species or system Rabbits; details: Oryctolagus cuniculus; rabbit saphenous artery rings, phenylephrine-induced contraction
Description: Rabbits are anaesthetized and sacrificed by intravenous injection of thiopental sodium (about 50 mg/kg) and exsanguinated. The saphenous artery is removed and divided into rings 3 mm wide. the rings are mounted singly on in each case a pair of triangular hooks open at the end and made of 0.3 mm-thick special wire (Remanium®). Each ring is placed under an initial tension in 5 ml organ baths with Krebs-Henseleit solution which is at 37° C., is gassed with carbogen and has the following composition: NaCl 119 mM; KCl 4.8 mM; CaCl2×2 H2O 1 mM; MgSO4×7 H2O 1.4 mM; KH2PO4 1.2 mM; NaHCO3 25 mM; glucose 10 mM; bovine serum albumin 0.001%. The force of contraction is detected with Statham UC2 cells, amplified and digitized via A/D converters (DAS-1802 HC, Keithley Instruments, Munich) and recorded in parallel on chart recorders. Contractions are induced by addition of phenylephrine.
After several (generally 4) control cycles, the substance to be investigated is added in each further run in increasing dosage, and the level of the contraction achieved under the influence of the test substance is compared with the level of the contraction reached in the last preceding run. The concentration necessary to reduce the contraction reached in the preceding control by 50% is calculated from this (IC50). The standard application volume is 5 μl. The proportion of DMSO in the bath solution corresponds to 0.1%.

[4] = target: T3, GAL4-PPARδ (Homo sapiens, UniProt Q03181); assay: Cellular PPAR transactivation assay, GAL4-PPARδ chimera in CHO-K1 cells; format: cell-based; details: for Emax: CHO-K1, maximum effect relative to reference compound (Example 73 of EP 1 452 521-A1 = 100%), read-out: PPARδ efficacy; for EC50: CHO-K1 cells, luciferase reporter, 6 h stimulation
T3 construct: PPARδ (amino acids 138-442); expressed in transfected cells
T3 sequence (Q03181 138-441 limits assumed): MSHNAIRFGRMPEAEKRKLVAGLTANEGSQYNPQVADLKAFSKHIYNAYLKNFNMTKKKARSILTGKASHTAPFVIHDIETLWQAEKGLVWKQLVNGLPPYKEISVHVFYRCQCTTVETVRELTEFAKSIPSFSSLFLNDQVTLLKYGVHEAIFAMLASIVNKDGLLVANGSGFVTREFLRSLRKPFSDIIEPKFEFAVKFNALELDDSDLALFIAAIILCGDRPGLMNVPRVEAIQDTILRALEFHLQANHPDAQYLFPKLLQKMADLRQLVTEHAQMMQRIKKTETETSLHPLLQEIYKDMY
Text: (§1) A cellular assay is used to test for potentially activating properties of the compounds according to the invention with respect to the three human isoforms of the peroxisome proliferator-activated receptors (PPARα, PPARγ and PPARδ).
(§2) Since mammalian cells contain different endogenous nuclear receptors which may complicate an unambiguous interpretation of the results, an established chimera system is used in which the respective ligand binding domain of the human PPAR isoforms is fused to the DNA binding domain of the yeast transcription factor GAL4. The resulting GAL4-PPARα, γ and δ chimeras are co-transfected and stably expressed in CHO cells having a reporter construct.
(§3) The GAL4-PPAR expression constructs contain the ligand binding domain of PPARα (amino acids 167-468), PPARγ (amino acids 203-506) and PPARδ (amino acids 138-442) which are PCR-amplified and cloned into the vector pcDNA3.1. The respective expression vectors already contain the GAL4 DNA binding domain (amino acids 1-147) of the vector pFC2-dbd (Stratagene). The reporter construct, which contains five copies of the GAL4 binding site upstream of a thymidine kinase promoter, expresses firefly luciferase (Photinus pyralis) following activation and binding of GAL4-PPARα, γ or δ.
(§4) The day before the test, CHO-K1 cells (chinese hamster ovary; ATCC CCL-61) each stably expressing one of the above-described GAL4-PPAR chimeras and the luciferase reporter gene construct are sown in medium [Optimem (GIBCO) with 2% activated carbon-purified foetal calf serum (Hyclone), 1.35 mM sodium pyruvate (GIBCO) and 0.2% sodium bicarbonate (GIBCO)] in a density of 1×10^3 cells in 96-well microtitre plates (Greiner) and kept in a cell incubator (96% atmospheric humidity, 5% v/v CO2, 37° C.). On the test day, the substances to be tested are taken up in the medium mentioned above, but without addition of calf serum, and added in various concentrations to the cells. After a stimulation period of 6 h, the luciferase activity is measured using a video camera. The relative light units measured give, as a function of the substance concentration, a sigmoidal stimulation curve. The EC50 values are calculated using the computer programme GraphPad PRISM (Version 3.02). The maximum effect of a test substance in the respective PPAR assay is determined as efficacy in percent in comparison to an appropriate reference compound whose maximum effect is defined as 100%.
(§5) The reference compound selected here was the compound 2-(3-{[(2-chloro-4-propoxybenzoyl)-amino]methyl}-4-ethoxybenzyl)tetrahydrofuran-2-carboxylic acid [Example 73 of EP 1 452 521-A1] which is described in the prior art as a potent pan-PPAR agonist.

[5] = target: T4, GAL4-PPARγ (Homo sapiens, UniProt P37231); assay: Cellular PPAR transactivation assay, GAL4-PPARγ chimera in CHO-K1 cells; format: cell-based; details: for Emax: CHO-K1, maximum effect relative to reference compound (Example 73 of EP 1 452 521-A1 = 100%), read-out: PPARγ efficacy; for EC50: CHO-K1 cells, luciferase reporter, 6 h stimulation
T4 construct: PPARγ (amino acids 203-506); expressed in transfected cells
T4 sequence (P37231 203-505 limits assumed): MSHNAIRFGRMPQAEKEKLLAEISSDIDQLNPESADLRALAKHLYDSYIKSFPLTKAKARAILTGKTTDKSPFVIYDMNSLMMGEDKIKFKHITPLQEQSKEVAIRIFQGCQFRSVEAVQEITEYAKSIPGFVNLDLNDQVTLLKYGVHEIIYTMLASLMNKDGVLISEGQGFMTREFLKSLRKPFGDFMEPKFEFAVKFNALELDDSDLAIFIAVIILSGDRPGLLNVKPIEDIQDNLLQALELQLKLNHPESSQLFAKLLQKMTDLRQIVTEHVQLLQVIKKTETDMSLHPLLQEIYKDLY
Text: as §1, §2, §3, §4, §5

[6] = target: T5, GAL4-PPARα (Homo sapiens, UniProt Q07869); assay: Cellular PPAR transactivation assay, GAL4-PPARα chimera in CHO-K1 cells; format: cell-based; details: for Emax: CHO-K1, maximum effect relative to reference compound (Example 73 of EP 1 452 521-A1 = 100%), read-out: PPARα efficacy; for EC50: CHO-K1 cells, luciferase reporter, 6 h stimulation
T5 construct: expressed in transfected cells
T5 sequence (Q07869 167-468): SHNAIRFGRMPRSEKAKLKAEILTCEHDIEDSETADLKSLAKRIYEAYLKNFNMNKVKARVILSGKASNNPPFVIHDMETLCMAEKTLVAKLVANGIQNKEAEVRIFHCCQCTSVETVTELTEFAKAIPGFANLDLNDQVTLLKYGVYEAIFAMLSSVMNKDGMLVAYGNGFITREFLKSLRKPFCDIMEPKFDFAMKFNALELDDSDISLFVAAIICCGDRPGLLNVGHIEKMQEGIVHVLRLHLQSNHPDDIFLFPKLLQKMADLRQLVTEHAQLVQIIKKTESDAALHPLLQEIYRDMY
Text: as §1, §2, §3, §4, §5

T1 sequence (P19686 whole entry partner): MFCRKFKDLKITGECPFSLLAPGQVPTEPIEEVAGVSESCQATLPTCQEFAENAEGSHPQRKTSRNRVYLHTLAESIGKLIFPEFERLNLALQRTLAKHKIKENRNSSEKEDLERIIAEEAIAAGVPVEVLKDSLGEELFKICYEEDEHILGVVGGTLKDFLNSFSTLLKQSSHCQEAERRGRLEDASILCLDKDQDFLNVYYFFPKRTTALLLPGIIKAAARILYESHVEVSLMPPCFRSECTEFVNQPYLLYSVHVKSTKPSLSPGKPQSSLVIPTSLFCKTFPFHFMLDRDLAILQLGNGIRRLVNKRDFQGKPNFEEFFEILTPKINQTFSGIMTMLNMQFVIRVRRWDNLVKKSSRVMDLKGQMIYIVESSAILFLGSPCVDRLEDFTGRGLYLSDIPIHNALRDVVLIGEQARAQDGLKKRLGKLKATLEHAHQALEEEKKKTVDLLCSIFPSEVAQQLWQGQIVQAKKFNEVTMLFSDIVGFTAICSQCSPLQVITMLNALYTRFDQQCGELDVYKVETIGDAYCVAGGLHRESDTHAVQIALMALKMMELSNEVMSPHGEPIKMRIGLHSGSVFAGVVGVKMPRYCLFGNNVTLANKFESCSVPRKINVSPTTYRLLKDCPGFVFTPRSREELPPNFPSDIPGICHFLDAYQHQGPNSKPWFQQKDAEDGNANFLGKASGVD
T1 sequence (P20595 whole entry): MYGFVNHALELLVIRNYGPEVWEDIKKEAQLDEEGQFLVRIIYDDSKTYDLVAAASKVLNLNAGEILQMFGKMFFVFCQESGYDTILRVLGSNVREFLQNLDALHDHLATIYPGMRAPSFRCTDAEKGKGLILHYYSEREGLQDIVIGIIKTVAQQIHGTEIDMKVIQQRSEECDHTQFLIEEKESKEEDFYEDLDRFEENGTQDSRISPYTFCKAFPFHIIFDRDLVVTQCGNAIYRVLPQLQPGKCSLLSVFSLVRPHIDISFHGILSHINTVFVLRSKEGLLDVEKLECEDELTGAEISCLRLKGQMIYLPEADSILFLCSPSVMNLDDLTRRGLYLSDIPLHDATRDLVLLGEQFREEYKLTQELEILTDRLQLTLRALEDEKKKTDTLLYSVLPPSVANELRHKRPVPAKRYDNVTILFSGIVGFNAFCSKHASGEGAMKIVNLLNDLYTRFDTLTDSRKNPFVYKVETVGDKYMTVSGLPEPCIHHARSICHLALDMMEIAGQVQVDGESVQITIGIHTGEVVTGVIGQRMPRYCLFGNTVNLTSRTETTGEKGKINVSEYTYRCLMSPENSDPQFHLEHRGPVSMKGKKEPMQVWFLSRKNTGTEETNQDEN
T2 sequence (P19686 whole entry partner): as the sequence (P19686 whole entry partner) above
T2 sequence (P20595 whole entry): as the sequence (P20595 whole entry) above

Compound	MEC (minimum effective concentration), activating action at the sGC enzyme [1] [nM]	EC50 [1] [µM]	MEC (minimum effective concentration), sGC-activating activity in the CHO reporter cell [2] [nM]	IC50 [3] [µM]	Emax [4] [%]	EC50 [4] [µM]	Emax [5] [%]	EC50 [5] [µM]	Emax [6] [%]	EC50 [6] [µM]
CCOC(c1ccc(Cl)c(NC(=O)[C@H](c2ccc(Cl)cc2)[C@@H](C)C(F)(F)F)c1)C1(C(=O)O)CCC1 (single isomer, unassigned) [Example 109]	0.7	0.02	0.3	0.338	–	–	–	–	–	–
COc1cc([C@@H](C(=O)Nc2cc(CC3(C(=O)O)CC3)ccc2Cl)[C@@H](C)C(F)(F)F)ccc1Cl [Example 43, 1-(4-chloro-3-{[(2S,3R)-2-(4-chloro-3-methoxy-phenyl)-4,4,4-trifluoro-3-methylbutanoyl]amino}-benzyl)cyclopropanecarboxylic acid]	3.4	0.024	3	–	0	> 10	10	1.8	0	> 10
C[C@H]([C@H](C(=O)Nc1cc(CC2(C(=O)O)CC2)ccc1F)c1ccc(Cl)cc1)C(F)(F)F [Example 51, (+)-1-(3-{[(2S,3R)-2-(4-Chlorophenyl)-4,4,4-trifluoro-3-methylbutanoyl]amino}-4-fluorobenzyl)-cyclopropanecarboxylic acid]	3.0	0.021	0.3	–	0	> 10	20	1.9	0	> 10
